# Experiments:
# [1] = Partition coefficient, log P of the compound; assay type: physicochemical; conditions: octanol/water
# [2] = system: Tetranychus urticae; assay: Ovicidal activity against Tetranychus urticae; assay type: functional
SMILES,logP [1],LC50 [2]
Clc1cccc(C2=NC(c3ccccc3)CO2)c1Cl (stereo unspecified),4.28,10 µg/mL
Cc1cccc(C)c1-c1ncco1,2.21,
COc1ccccc1C1=NC(c2ccccc2)CO1 (stereo unspecified),3.76,10 µg/mL
c1ccc(C2=NC(c3ccccc3)CO2)cc1 (stereo unspecified),3.56,10 µg/mL
Fc1cccc(F)c1-c1ncco1,1.45,
Cc1ccccc1C1=NC(c2ccccc2)CO1 (stereo unspecified),3.68,100 µg/mL
COc1ccc(C2=NC(c3ccccc3)CO2)cc1 (stereo unspecified),3.78,100 µg/mL
Brc1ccccc1C1=NC(c2ccccc2)CO1 (stereo unspecified),3.69,0.1 µg/mL
COc1cccc(C2=NC(c3ccccc3)CO2)c1 (stereo unspecified),3.77,> 1000 µg/mL
Clc1ccccc1C1=NC(c2ccccc2)CO1 (stereo unspecified),3.56,1 µg/mL
Ic1ccccc1-c1ncco1,2.3,
Fc1cccc(F)c1C1=NC(c2ccccc2)CO1 (stereo unspecified),3.01,1 µg/mL
Clc1cccc(C2=NC(c3ccccc3)CO2)c1 (stereo unspecified),4.44,100 µg/mL
FC(F)(F)c1ccccc1-c1ncco1,2.15,
c1ccc(Oc2ccccc2C2=NC(c3ccccc3)CO2)cc1 (stereo unspecified),5.61,100 µg/mL
Fc1cccc(Cl)c1C1=NC(c2ccccc2)CO1 (stereo unspecified),3.45,0.01 µg/mL

SMILES,logP [1],LC50 [2]
Clc1cccc(Cl)c1C1=NC(c2ccccc2)CO1 (stereo unspecified),3.69,1 µg/mL
Cc1cccc(C2=NC(c3ccccc3)CO2)c1 (stereo unspecified),4.11,> 1000 µg/mL
Clc1ccc(C2=NC(c3ccccc3)CO2)c(Cl)c1 (stereo unspecified),4.4,10 µg/mL
Fc1cccc(Cl)c1-c1ncco1,1.89,
Ic1ccccc1C1=NC(c2ccccc2)CO1 (stereo unspecified),3.86,1 µg/mL
Clc1ccc(C2=NC(c3ccccc3)CO2)cc1 (stereo unspecified),4.48,100 µg/mL
CSc1ccccc1C1=NC(c2ccccc2)CO1 (stereo unspecified),3.5,100 µg/mL
Cc1ccc(C2=NC(c3ccccc3)CO2)cc1 (stereo unspecified),4.11,> 1000 µg/mL
Clc1ccc(Cl)c(C2=NC(c3ccccc3)CO2)c1 (stereo unspecified),4.4,100 µg/mL
O=[N+]([O-])c1ccccc1-c1ncco1,1.27,
FC(F)(F)c1ccccc1C1=NC(c2ccccc2)CO1 (stereo unspecified),3.71,100 µg/mL
CCSc1ccccc1C1=NC(c2ccccc2)CO1 (stereo unspecified),4.04,100 µg/mL
CCOc1ccccc1C1=NC(c2ccccc2)CO1 (stereo unspecified),4.22,> 1000 µg/mL
Fc1ccccc1C1=NC(c2ccccc2)CO1 (stereo unspecified),3.51,10 µg/mL
O=[N+]([O-])c1ccccc1C1=NC(c2ccccc2)CO1 (stereo unspecified),2.83,100 µg/mL

# Source: ChEMBL document CHEMBL1146854, “Estimation of the hydrophobicity of 2,4-diphenyl-1,3-oxazoline analogs and QSAR analysis of their ovicidal activity against Tetranychus [corrected] urticae” (Bioorg Med Chem Lett, 2006)
